# Measurements from ChEMBL document CHEMBL1142811, “Design and syntheses of melanocortin subtype-4 receptor agonists. Part 2: discovery of the dihydropyridazinone motif” (Bioorg Med Chem Lett, 2005).
# pEC50, pIC50: −log10 of the molar value.
# Tests used:
# Melanocortin receptor 4 [1] = target: T1, Melanocortin receptor 4 (Homo sapiens, UniProt P32245); assay: Inhibition of [125I]-NDP- alpha-MSH binding to human melanocortin 4 receptor expressed in CHO cells; assay type: cell-based
# Melanocortin receptor 4 [2] = target: T1, Melanocortin receptor 4; assay: Effective concentration at human melanocortin 4 receptor in cAMP release assay; assay type: functional
# Melanocortin receptor 4 [3] = target: T1, Melanocortin receptor 4; assay: Maximum percentage of cAMP accumulation relative to alpha-MSH at human melanocortin 4 receptor at 10 uM; assay type: functional
# Melanocortin receptor 4 [4] = target: T1, Melanocortin receptor 4; assay: Maximum percentage of cAMP accumulation compared to alpha-MSH at human melanocortin 4 receptor at 10 uM; assay type: functional
# T1 sequence (P32245 whole entry): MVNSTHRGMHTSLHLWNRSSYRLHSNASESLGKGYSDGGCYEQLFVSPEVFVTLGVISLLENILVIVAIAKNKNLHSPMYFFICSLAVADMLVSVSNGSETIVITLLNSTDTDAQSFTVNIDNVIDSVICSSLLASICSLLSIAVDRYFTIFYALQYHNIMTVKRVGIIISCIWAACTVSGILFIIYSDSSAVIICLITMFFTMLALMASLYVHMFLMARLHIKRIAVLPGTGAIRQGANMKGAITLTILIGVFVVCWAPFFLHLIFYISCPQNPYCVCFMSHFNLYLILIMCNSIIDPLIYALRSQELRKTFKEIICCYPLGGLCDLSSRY
Structure (SMILES),pIC50 (Melanocortin receptor 4 [1]),pEC50 (Melanocortin receptor 4 [2]),Max (Melanocortin receptor 4 [3]) [%],Max (Melanocortin receptor 4 [4]) [%]
COc1ccc(N2N=C(Sc3ccc(Cl)cc3)CC(CC[C@@H](C)NC(=O)[C@@H]3CNCC[C@H]3c3ccc(F)cc3)C2=O)cc1 (stereo in doubt; 60),6.25,–,–,–
"COc1ccc(N2N=C(Sc3ccc(Cl)cc3)CC(CC[C@@H](C)NC(=O)C3CNC[C@H]3c3ccc(F)cc3)C2=O)cc1 (single isomer, unassigned; 68)",6.11,5.40,–,–
COc1ccc(-n2nc(Sc3ccc(Cl)cc3)cc(CC[C@@H](C)NC(=O)[C@H]3CNC[C@@H]3c3ccccc3F)c2=O)cc1,6.80,6.15,82,–
COc1ccc(-n2nc(Sc3ccc(Cl)cc3)cc(CC[C@@H](C)NC(=O)[C@H]3CCNC[C@@H]3Cc3ccccc3)c2=O)cc1,6.12,–,–,36
COc1ccc(N2N=C(Sc3ccc(Cl)cc3)CC(CC[C@@H](C)NC(=O)[C@@H]3CNCC[C@H]3c3ccc(F)cc3)C2=O)cc1 (stereo in doubt; 61) [listing 1 of 2 here],–,–,32,–
COc1ccc(-n2nc(Sc3ccc(Cl)cc3)cc(CC[C@@H](C)N(C)C(=O)C3CNCCC3c3ccc(F)cc3)c2=O)cc1 (stereo partly drawn),7.03,6.39,94,–
COc1ccc(N2N=C(Sc3ccc(Cl)cc3)CC(CC[C@@H](C)NC(=O)[C@@H]3CNCC[C@H]3c3ccc(F)cc3)C2=O)cc1 (stereo in doubt; 61) [listing 2 of 2 here],6.16,5.40,–,–
COc1ccc(-n2nc(Sc3ccc(Cl)cc3)cc(CC[C@@H](C)NC(=O)[C@H]3CNC[C@@H]3c3ccc(Cl)cc3)c2=O)cc1,7.35,6.64,70,–
COc1ccc(-n2nc(Sc3ccc(Cl)cc3)cc(CC[C@@H](C)NC(=O)[C@@H]3CNCCN3c3ccc(F)cc3)c2=O)cc1,7.55,5.96,75,–
COc1ccc(-n2nc(Sc3ccc(Cl)cc3)cc(CC[C@@H](C)NC(=O)[C@H]3CNCC[C@@H]3c3ccc(C(F)(F)F)cc3)c2=O)cc1,8.42,< 5.30,–,24
COc1ccc(-n2nc(Sc3ccc(Cl)cc3)cc(CC[C@@H](C)NC(=O)[C@H]3CNC[C@@H]3c3ccc(C)cc3)c2=O)cc1,7.55,6.12,67,–
COc1ccc(-n2nc(Sc3ccc(Cl)cc3)cc(CC[C@H](C)NC(=O)[C@H]3CNCCN3c3ccc(F)cc3)c2=O)cc1,5.96,–,–,9
COc1ccc(-n2nc(Sc3ccc(Cl)cc3)cc(CC[C@@H](C)NC[C@H]3CNCC[C@@H]3c3ccc(F)cc3)c2=O)cc1,7.55,6.33,60,–
COc1ccc(-n2nc(Sc3ccc(Cl)cc3)cc(CC[C@@H](C)NC(=O)[C@H]3CNC[C@@H]3c3ccccc3)c2=O)cc1,7.01,6.40,103,–
COc1ccc(-n2nc(Sc3ccc(Cl)cc3)cc(CC[C@@H](C)NC(=O)[C@H]3CCNC[C@@H]3c3ccccc3F)c2=O)cc1,7.00,6.26,75,–
"COc1ccc(N2N=C(Sc3ccc(Cl)cc3)CC(CC[C@@H](C)NC(=O)C3CNC[C@@H]3c3ccc(F)cc3)C2=O)cc1 (single isomer, unassigned; 66)",7.33,5.92,–,–
"COc1ccc(N2N=C(Sc3ccc(Cl)cc3)CC(CC[C@@H](C)NC(=O)C3CNC[C@H]3c3ccc(F)cc3)C2=O)cc1 (single isomer, unassigned; 69)",–,–,48,–
COc1ccc(-n2nc(Sc3ccc(Cl)cc3)cc(CC[C@@H](C)NC(=O)[C@H]3CNCC[C@@H]3c3cccc(C(F)(F)F)c3)c2=O)cc1,7.00,–,–,40
COc1ccc(-n2nc(Sc3ccc(Cl)cc3)cc(CC[C@@H](C)NC(=O)[C@H]3CNCC[C@@H]3c3cccc(Cl)c3)c2=O)cc1,7.37,6.17,37,–
COc1ccc(-n2nc(Sc3ccc(Cl)cc3)cc(CC[C@H](C)NC(=O)[C@@H]3CNCCN3c3ccc(F)cc3)c2=O)cc1,6.00,–,–,38
COc1ccc(-n2nc(Sc3ccc(Cl)cc3)cc(CC[C@@H](C)NC(=O)[C@H]3CNCC[C@@H]3c3cccc(F)c3)c2=O)cc1,6.31,–,–,29
COc1ccc(N2N=C(Sc3ccc(Cl)cc3)CC(CC[C@@H](C)NC(=O)[C@@H]3CCNC[C@H]3c3ccc(F)cc3)C2=O)cc1 (stereo in doubt; 64),–,–,16,–
COc1ccc(N2N=C(Sc3ccc(Cl)cc3)CC(CC[C@@H](C)NC(=O)[C@@H]3CCNC[C@H]3c3ccc(F)cc3)C2=O)cc1 (stereo in doubt; 65) [listing 1 of 2 here],6.55,5.85,–,–
COc1ccc(-n2nc(Sc3ccc(Cl)cc3)cc(CC[C@@H](C)NC(=O)[C@H]3CNC[C@@H]3c3ccc(F)cc3F)c2=O)cc1,7.22,6.70,81,–
COc1ccc(-n2nc(Sc3ccc(Cl)cc3)cc(CC[C@@H](C)NC(=O)[C@H]3CNCC[C@@H]3c3cccc4ccccc34)c2=O)cc1,7.05,–,–,22
COc1ccc(N2N=C(Sc3ccc(Cl)cc3)CC(CC[C@@H](C)NC(=O)[C@@H]3CCNC[C@H]3c3ccc(F)cc3)C2=O)cc1 (stereo in doubt; 65) [listing 2 of 2 here],–,–,33,–
